From ChEMBL document CHEMBL1153495, “A highly sensitive probe detecting low pH area of HeLa cells based on rhodamine B modified beta-cyclodextrins” (Bioorg Med Chem, 2009)
The source made the active and inactive calls. The rule behind the calls is not given here.

Assays:
[1] = tested on: HeLa; assay: Cytotoxicity against human HeLa cells up to 1000 uM after 48 hrs by MTT assay; format: functional, cell-based
[2] = tested on: Jurkat; assay: Cytotoxicity against human Jurkat cells at 1000 uM after 48 hrs by MTT assay; format: functional, cell-based
[3] = tested on: HeLa; assay: Drug uptake in human HeLa cells assessed as staining capability after 5 hrs by fluorescence microscopy; format: ADME, cell-based

SMILES | Activity [1] | other results
NCCNCCNCCNCCNC[C@H]1O[C@@H]2O[C@H]3[C@H](O)[C@@H](O)[C@@H](O[C@@H]4[C@@H](O)[C@H](O)[C@H](O[C@@H]5[C@@H](O)[C@H](O)[C@H](O[C@@H]6[C@@H](O)[C@H](O)[C@H](O[C@@H]7[C@@H](O)[C@H](O)[C@H](O[C@H]8[C@H](O)[C@@H](O)[C@@H](O[C@H]1[C@H](O)[C@H]2O)O[C@@H]8CO)O[C@H]7CO)O[C@H]6CO)O[C@H]5CO)O[C@H]4CO)O[C@@H]3CO | inactive | Activity [2]: Active
NCCNC[C@H]1O[C@@H]2O[C@H]3[C@H](O)[C@@H](O)[C@@H](O[C@@H]4[C@@H](O)[C@H](O)[C@H](O[C@@H]5[C@@H](O)[C@H](O)[C@H](O[C@@H]6[C@@H](O)[C@H](O)[C@H](O[C@@H]7[C@@H](O)[C@H](O)[C@H](O[C@H]8[C@H](O)[C@@H](O)[C@@H](O[C@H]1[C@H](O)[C@H]2O)O[C@@H]8CO)O[C@H]7CO)O[C@H]6CO)O[C@H]5CO)O[C@H]4CO)O[C@@H]3CO | inactive | –
CCN(CC)c1ccc2c(-c3ccccc3C(=O)O)c3ccc(=[N+](CC)CC)cc-3oc2c1 [RHODAMINE B] | – | Activity [3]: Not Active
CCN(CC)c1ccc2c(-c3ccccc3C(=O)NCCNCCNCCNCCNC[C@H]3O[C@@H]4O[C@H]5[C@H](O)[C@@H](O)[C@@H](O[C@@H]6[C@@H](O)[C@H](O)[C@H](O[C@@H]7[C@@H](O)[C@H](O)[C@H](O[C@@H]8[C@@H](O)[C@H](O)[C@H](O[C@@H]9[C@@H](O)[C@H](O)[C@H](O[C@H]%10[C@H](O)[C@@H](O)[C@@H](O[C@H]3[C@H](O)[C@H]4O)O[C@@H]%10CO)O[C@H]9CO)O[C@H]8CO)O[C@H]7CO)O[C@H]6CO)O[C@@H]5CO)c3ccc(=[N+](CC)CC)cc-3oc2c1.[Cl-] | – | Drug uptake [3]: 66.6 µM
OC[C@H]1O[C@@H]2O[C@H]3[C@H](O)[C@@H](O)[C@@H](O[C@H]4[C@H](O)[C@@H](O)[C@@H](O[C@H]5[C@H](O)[C@@H](O)[C@@H](O[C@H]6[C@H](O)[C@@H](O)[C@@H](O[C@H]7[C@H](O)[C@@H](O)[C@@H](O[C@H]8[C@H](O)[C@@H](O)[C@@H](O[C@H]1[C@H](O)[C@H]2O)O[C@@H]8CO)O[C@@H]7CO)O[C@@H]6CO)O[C@@H]5CO)O[C@@H]4CO)O[C@@H]3CO | inactive | –
